{"source": "patent US5849696A", "about": "“Composition and method of treating hepatitis C” (The Board of Governors of Wayne State University, priority 1993, dated 1998)", "origin": "cited, not measured here", "key": {"HCV": {"test_system": "HCV", "settings": "in vivo"}, "[1]": {"test_system": "nonsmall cell lung cancer"}, "[2]": {"test_system": "Woodchuck Hepatitis Virus", "settings": "woodchuck infected with Woodchuck Hepatitis Virus"}, "[3]": {"test_system": "natural killer-cell activity", "settings": "THNα1 together with interferon, immunosuppressed mice"}, "hepatitis B virus (HBV)": {"test_system": "hepatitis B virus (HBV)", "settings": "treated for a year"}, "[4]": {"test_system": "chronic hepatitis C (NANB hepatitis)"}}, "note": "Like-named read-outs stand apart in the source and are kept apart here. Where no end group is shown, it is not given here."}
{"compound": "Nc1nc2c(ncn2COCCO)c(=O)[nH]1", "note": "[acyclovir]", "values": [{"measurement": "effect on HCV-related diseases", "setting": "HCV", "result": "ineffective"}]}
{"compound": "Thymosin α-1 (SDAAVDTSSEITTKDLKEKKEVVEEAEN; ends and bridges not checked; UniProt P06454 2-29, looked up) [THNα1]", "values": [{"measurement": "immune function", "setting": "[1]; after radiotherapy", "result": "some restoration of radiation-suppressed immune function"}, {"measurement": "relapse-free survival and overall survival", "setting": "[1]; both THNα1 treatment groups versus placebo group", "result": "greater"}, {"measurement": "T-cell numbers", "setting": "[1]; human, in vivo", "result": "no increase"}, {"measurement": "clinical parameters", "setting": "[2]", "result": "no improvement"}, {"measurement": "viral DNA replication", "setting": "[2]", "result": "suppressed viral DNA replication"}, {"measurement": "interleukin-2 receptor expression", "setting": "human lymphocytes", "result": "increase"}, {"measurement": "production of interferon-α, interferon-γ and interleukin-2", "setting": "human lymphocytes", "result": "promote production"}, {"measurement": "effect on natural killer-cell activity", "setting": "[3]", "result": "synergistic effect"}, {"measurement": "patients with reduced levels of serum HBV DNA", "setting": "hepatitis B virus (HBV); pooled THNα1 (5 patients) and TF-5 (2 patients)", "result": "6 of the 7"}, {"measurement": "patients initially positive for serum HBsAg who subsequently cleared this antigen", "setting": "hepatitis B virus (HBV); pooled THNα1 and TF-5 patients", "result": "5 of 6"}, {"measurement": "serum ALT", "setting": "hepatitis B virus (HBV); THNα1 (5 patients) or TF-5 (2 patients)", "result": "marked decrease"}, {"measurement": "clinical or biochemical toxicity", "setting": "influenza vaccine; drug recipients", "result": "No clinical or biochemical toxicity was observed"}, {"measurement": "levels of antibody to influenza", "setting": "influenza vaccine; six weeks post-vaccine, subcutaneously twice weekly", "result": "higher levels of antibody to influenza than controls"}]}
{"compound": "interferon α", "values": [{"measurement": "mean serum ALT and histological features of the liver", "setting": "chronic HCV infection; 2 MU subcutaneously three times weekly for six months", "result": "improved significantly"}, {"measurement": "complete response (decline in mean serum ALT to the normal range during therapy)", "setting": "chronic HCV infection; 2 MU subcutaneously three times weekly for six months, ten of twenty-one patients", "result": 48, "unit": "%"}, {"measurement": "further patients with decrease in mean ALT of more than 50%", "setting": "chronic HCV infection; 2 MU three times weekly for six months", "result": "three"}, {"measurement": "patients still with normal serum ALT values", "setting": "chronic HCV infection; six to twelve months after discontinuation of therapy, two patients", "result": 10, "unit": "%"}, {"measurement": "mean serum ALT levels during the 24 week treatment period", "setting": "chronic NANB hepatitis; 1 MU three times a week", "result": "decreased"}, {"measurement": "proportion of patients with normal ALT levels", "setting": "chronic NANB hepatitis; at 24 weeks, 1 MU group", "result": 45, "unit": "%"}, {"measurement": "proportion of patients with normal ALT levels", "setting": "chronic NANB hepatitis; at 24 weeks, 3 MU group", "result": 39, "unit": "%"}, {"measurement": "proportion of patients with normal ALT levels", "setting": "chronic NANB hepatitis; at week 48, 1 MU group", "result": 20, "unit": "%"}, {"measurement": "proportion of patients with normal ALT levels", "setting": "chronic NANB hepatitis; at week 48, 3 MU group", "result": 28, "unit": "%"}, {"measurement": "repeat liver biopsy, severity of histological changes", "setting": "chronic NANB hepatitis; higher dose group (3 MU)", "result": "significant decrease in the severity of histological changes"}, {"measurement": "relapse in disease activity when interferon was stopped", "setting": "chronic NANB hepatitis; responders", "result": "approximately half of the responders"}, {"measurement": "relapse within six months after the completion of treatment", "setting": "[4]; 1 MU", "result": 44, "unit": "%"}, {"measurement": "serum ALT response", "setting": "[4]; 1 MU three times weekly for 24 weeks, nine of sixteen patients", "result": 56, "unit": "%"}, {"measurement": "liver histology", "setting": "[4]; 3 MU", "result": "histologic improvement"}, {"measurement": "relapse within six months after the completion of treatment", "setting": "[4]; 3 MU", "result": 51, "unit": "%"}, {"measurement": "serum ALT level became completely normal", "setting": "[4]; 3 MU three times weekly for 24 weeks, 22 of the 26 patients who responded", "result": 85, "unit": "%"}]}
